{"source": "patent US11351206B2", "about": "“Probiotic sports nutrition compositions” (Ganeden Biotech, Inc., priority 2011, dated 2022)", "test_system": "various bacterial pathogens", "assay": "Zone of inhibition assay, positive control", "type": "cell-based", "details": "1 μl volume", "excerpt": "The probiotic organisms described herein, e.g., Bacillus coagulans strain GBI-30 or GANEDEN BC-30™, ATCC Designation Number PTA-6086, promote digestive and oral health and support the immune system. The ability of Bacillus coagulans to inhibit various bacterial pathogens was quantitatively ascertained by use of an in vitro assay. This assay is part of a standardized bacterial pathogen screen (developed by the U.S. Food and Drug Administration (FDA)) and is commercially available on solid support disks (DIFCO® BACTROL® Antibiotic Disks). To perform the assay, potato-dextrose plates)(DIFCO® were initially prepared using standard procedures. The plates were then individually inoculated with the bacteria (approximately 1.5×10^6 CFU) to be tested so as to form a confluent bacterial bed.\nInhibition of microorganisms (e.g. gastrointestinal pathogens) by Bacillus coagulans was subsequently ascertained by placing approximately 1.8×10^6 CFU of Bacillus coagulans in 10 μl of broth or buffer, directly in the center of the potato-dextrose plate with one test locus being approximately 8 mm in diameter per plate. A minimum of three test loci were used for each assay. […] The plates were then incubated for approximately about 18 hr at 30° C., at which time the zones of inhibition were measured. […]", "data": [{"smiles": "O=CCCCC=O", "note": "[glutaraldehyde]", "values": [{"measurement": "inhibition", "setting": "about 18 hr at 30° C.", "result": "excellent “inhibition”"}, {"measurement": "zone of inhibition diameter", "setting": "average of three tests", "result": "approximately 16.2 mm"}]}]}
